Values quoted from earlier work in patent US20130261032A1, “ADDITIVE FOR SUBTERRANEAN TREATMENT” (SCHLUMBERGER TECHNOLOGY CORPORATION, priority 2012, published 2013).
Like-named read-outs stand apart in the source and are kept apart here.

SMILES: C[N+](C)(C)CC(=O)[O-] [TMG, trimethyl glycine]
- acute oral toxicity, LD50 (oral): greater than 10,000 mg/kg

SMILES: CCO [ethanol]
- acute oral toxicity, LD50 (in vivo, po): 7060 mg/kg

SMILES: CC(O)CO (stereo not drawn) [propylene glycol]
- acute oral toxicity, LD50 (oral): 20,000 mg/kg
